Experimental data published in patent publication US20060135569A1, “Use of benzisoselenazolone compounds against ischemic myocardial damage” (priority 2002, published 2006).
Marks after values point to notes of the source that are not given here.

Tests used:
TA100 = test: Ames test, strain TA100; assay type: cell-based
Method: (§1) To assess the mutagenic effects of 5 compounds (IMM-004; IMM-065; IMM-127; IMM-128; IMM-313), the Ames test was performed in 4 strains (TA97; TA98; TA100; TA102). The experiment was conducted with compounds at 4 concentration levels (0.5, 5, 50 and 500 μg/dish). […]

TA97; TA98; TA100; TA102 = test: Ames (mutagenesis) test, overall result in 4 strains; assay type: cell-based; settings: 0.5, 5, 50 and 500 μg/dish
Method: as §1

TA98 = test: Ames test, strain TA98; assay type: cell-based
Method: as §1

[1] = system: isolated rat hearts subjected to ischemia-reperfusion (I/R); test: Isolated heart subjected to ischemia/reperfusion injury (arrhythmia)
Method: Based on the pre-electrophysiological cell model screening, we have compared the inhibition ratios of the outward current by reverse-transportation of Na^+/Ca^2+ exchange, and further in vitro tests on isolated rat hearts subjected to ischemia-reperfusion (I/R) were conducted. Prolongation of ventricular arrhythmic, incidence rate of ventricular extrasystole, ventricular tachycardia/ventricular fibrillation (VT/VF) were recorded to evaluate the protective actions of drugs on myocardial injury.
On the basis of above screening results obtained from electrophysiological studies, and the result from comparative study on the research of the inhibitory effect of compounds on reverse mode Na^+/Ca^2+ exchange process, 7 effective compounds were subjected to in vitro study. Among which, IMM-313, IMM-004 and IMM-132 have structures containing chlorine; IMM-127, IMM-128 and IMM-129 have structures containing fluorine; and IMM-065 has a structure containing OH. The experiment performed in the isolated heart subjected to ischemia/reprefusion insult. Prolongation of ventricular arrhythmic, incidence of ventricular extrasystole, ventricular tachycardia/ventricular fibrillation (VT/VF) were recorded in order to evaluate the protective actions of drugs on myocardial injury.

TA102 = test: Ames test, strain TA102; assay type: cell-based
Method: as §1

Na^+/Ca^2+ exchanger = molecular target: T1, Na^+/Ca^2+ exchanger (Cavia porcellus, UniProt P48766); test: Na^+/Ca^2+ exchange current (INa—Ca), whole-cell patch clamp, intracellular Na^+ overload cell model; assay type: cell-based, guinea pig
T1 construct: endogenous in cells; host or cells: freshly isolated guinea pig ventricular myocytes
Excerpt: 1. Establishment of Assaying Method for Biphasical Current Detection in Na^+/Ca^2+ Exchange System
Since the reverse mode of Na^+/Ca^2+ exchange process is one of the main mechanisms involving in ischemia/reperfusion insult, it is of great importance to establish cell model represented reverse mode Na^+/Ca^2+ exchange process for the development of drugs against ischemic injury. Therefore, we successfully established cell model of reverse mode Na^+/Ca^2+ exchange system by intracellular Na^+ dialysis technique, and recorded Na^+/Ca^2+ exchange currents by patch clamp experiment.
Internal solution contained certain concentration of NaCl was filled to the microcatheter, and ion exchange process between the cellular and internal solutions was conducted after whole cell currents were recorded by patch clamp. Na^+ contained in the internal solution was dialyzed into the cell; result in the high intracellular Na^+ concentration. After that, the cell was champed at a holding potential of −40 mV, then depolarized to +60 mV and followed by a conversely declining ramp stimuli at a speed of 80 mV·s^−1 and 2 s conditioning pulse, then repolarized to −100 mV with a frequency of 0.05 Hz. Under the stimulation protocol, current from outward to the inward direction was recorded by perfusing modified biphasical Tyrode solution (in which the outward and inward currents can be recorded simultaneously) with the addition of 1 mmol·L^−1 of BaCl2 and 2 mmol·L^−1 of CsCl to block K^+ channels, 1 μmol·L^−1 of verapamil to block L-type Ca^2+ channels, and 20 μmol·L^−1 of ouabain to block Na^+/K^+ ATPase, and 20 mmol·L^−1 of TEA to block potassium channels. The recorded inward currents were presented in a linear manner owing to the blockade of other time-dependent currents. With the increase of intracellular Na^+ level and prolongation of time, the reverse mode of Na^+/Ca^2+ exchange process was activated. […] Under such experimental conditioning, the maximum reverse mode current was recorded 3 min after cell crushed. No significant “run-down” was observed within the record period of 8 minutes. The inward and outward current were inhibited by 5 mmol·L^−1 of Ni^2+ treatment, and the experiment result in two current-voltage curves in the absence or presence of Ni^2+. The Ni^2+ sensitive current, also called electrophysiological Na^+/Ca^2+ exchange current (INa·Ca), was the minus result of two current-voltage curves. The reverse mode potential of INa—Ca was about −20 mV
Male guinea pigs weighting 250˜280 g provided by the Animal Center of the Chinese Academy of Medical Sciences were hammered and sacrificed. The chest was opened and the heart was removed quickly. Fatty tissue and pericardium were removed in a Ca^2+-free solution at 4° C., and heart was sequentially mounted on a Langendorff apparatus. First, the heart was perfused conversely via the aorta for 6 min with Ca^2+-free solution in order to wash out residual blood, then the heart expands and the color of it turns to pink. Then the heart was perfused with Ca^2+-free solution containing 0.1 mg/ml of pronase E, 0.5 mg/ml defatted bovine serum albumin (BSA) and 150 μM Ca^2+ for 2˜3 min, until the heart expanded and became soft. The atrium was removed, and the digested heart was minced with scissors, stirred in a beaker at 37° C. for 5˜10 min. The supernatant was diluted with Ca^2+-free solution containing 0.5 mg/ml BSA and 1.8 mM Ca^2+. The supernatant was placed at room temperature (20˜24° C.) for 1 hr and then subjected to the experiment. During the whole perfusion period, pressure was kept at 70 cmH2O and the temperature of solution was kept at 37° C. with continuously gassed with 95% O2 and 5% CO2.
Rod-shaped cells with clear striations and intact membrane were used. […]

[2] = system: arrhythmia caused by ischemia/reperfusion insults in anaesthetic rats; test: Ischemia/reperfusion arrhythmia in anaesthetic rats, intravenous injection; assay type: in vivo, rat; settings: 3 mg/Kg intravenous (femoral vein), rats
Excerpt: (1) Protective Effects of the Tested Compounds on Myocardial Insults in Rats after Intravenously Injection
Arrhythmic potency induced by myocardial insults was used to assess the potential protective effect of the compounds.

TA97 = test: Ames test, strain TA97; assay type: cell-based
Method: as §1

[3] = 10^−6 M, isolated heart ischemia/reperfusion
[4] = Example 1 table, myocardial cell
[5] = screening of 22 candidate compounds

C/C(=N\O)c1ccc(-n2[se]c3ccccc3c2=O)cc1 [IMM-065]
TA100 +S9 (TA100; 0.5 μg/dish): 176.67 ± 24.57
TA100 −S9 (TA100; 0.5 μg/dish): 153.67 ± 13.47
TA100 +S9 (TA100; 5 μg/dish): 167.00 ± 58.86
TA100 −S9 (TA100; 5 μg/dish): 60.33 ± 19.91
TA100 +S9 (TA100; 50 μg/dish): 180.33 ± 29.83
TA100 −S9 (TA100; 50 μg/dish): 108.67 ± 6.79
TA100 +S9 (TA100; 500 μg/dish): 0
TA100 −S9 (TA100; 500 μg/dish): 62.33 ± 20.53
mutagenic effect (Ames test) (TA97; TA98; TA100; TA102): No evidence for a mutagenic effect
TA98 +S9 (TA98; 0.5 μg/dish): 56.50 ± 4.50
TA98 −S9 (TA98; 0.5 μg/dish): 52.00 ± 3.74
TA98 +S9 (TA98; 5 μg/dish): 61.67 ± 11.15
TA98 −S9 (TA98; 5 μg/dish): 42.00 ± 10.80
TA98 +S9 (TA98; 50 μg/dish): 42.00 ± 5.72
TA98 −S9 (TA98; 50 μg/dish): 45.33 ± 5.44
TA98 +S9 (TA98; 500 μg/dish): 168.00 ± 32.00
TA98 −S9 (TA98; 500 μg/dish): 54.00 ± 12.83
protective effects on myocardial insults ([1]; 10^−6M, isolated heart): significant protective effects
AAT: arrhythmic occurrence time, Time [1, 3]: 13.09 ± 3.76 min
VF (ventricular fibrillation) Incidence rate (%) [1, 3]: 50%
VPS (ventricular premature beats) Incidence rate (%) [1, 3]: 30%
VT (ventricular tachycardia) Incidence rate (%) [1, 3]: 70%
TA102 +S9 (TA102; 0.5 μg/dish): 270.00 ± 10.00
TA102 −S9 (TA102; 0.5 μg/dish): 244.00 ± 12.33
TA102 +S9 (TA102; 5 μg/dish): 308.00 ± 31.16
TA102 −S9 (TA102; 5 μg/dish): 246.00 ± 24.00
TA102 +S9 (TA102; 50 μg/dish): 339.33 ± 48.99
TA102 −S9 (TA102; 50 μg/dish): 217.33 ± 15.43
TA102 +S9 (TA102; 500 μg/dish): 287.33 ± 41.89
TA102 −S9 (TA102; 500 μg/dish): 215.00 ± 75.59
Inhibitory rate of inward INa—Ca (%) (Na^+/Ca^2+ exchanger; [4]): 43%
Inhibitory rate of outward INa—Ca (%) (Na^+/Ca^2+ exchanger; [4]): 55%
Inhibitory rate of inward INa—Ca (%) (Na^+/Ca^2+ exchanger; [5]): 43%
Inhibitory rate of outward INa—Ca (%) (Na^+/Ca^2+ exchanger; [5]): 55* %
incidence and duration of VT, VF, VE / ventricular arrhythmic [2]: no significant effect
TA97 +S9 (TA97; 0.5 μg/dish): 249.33 ± 35.83
TA97 −S9 (TA97; 0.5 μg/dish): 62.67 ± 4.49
TA97 +S9 (TA97; 5 μg/dish): 76.00 ± 15.29
TA97 −S9 (TA97; 5 μg/dish): 73.67 ± 6.64
TA97 +S9 (TA97; 50 μg/dish): 82.67 ± 12.92
TA97 −S9 (TA97; 50 μg/dish): 69.67 ± 3.77
TA97 +S9 (TA97; 500 μg/dish): 0
TA97 −S9 (TA97; 500 μg/dish): 59.67 ± 0.94
